Test results: patent US20260242419A1, “A CYCLIC PEPTIDE FOR TRAPPING INTERLEUKIN-1 BETA” (Merck Sharp & Dohme LLC, priority 2023, published 2026)
Starred links: 1 amine or outer side, 2 acyl side, 3 side chain; linkers in the order of their positions; H or OH if unused. Non-standard residues stand in square brackets, D forms with d. Residues, ends and D or L forms follow the SMILES beside them. Trp(4-Cl)(βS-Me) = C[C@@H](c1c[nH]c2cccc(Cl)c12)[C@H](N)C(=O)O; dPro(4R-(4-pyridylmethyl)) = O=C(O)[C@H]1C[C@@H](Cc2ccncc2)CN1; X17 = CN(C)C(=O)c1ccc(-c2ccc(C[C@H](N[*:1])C(=O)[*:2])cc2)cc1; Trp(βS-Me,4-F) = C[C@@H](c1c[nH]c2cccc(F)c12)[C@H](N)C(=O)O; Bip(4'-CONH2) = NC(=O)c1ccc(-c2ccc(C[C@H](N)C(=O)O)cc2)cc1; Bip(4'-COOH) = N[C@@H](Cc1ccc(-c2ccc(C(=O)O)cc2)cc1)C(=O)O; Ala(1-bicyclo(1.1.1)pentyl) = N[C@@H](CC12CC(C1)C2)C(=O)O; dPro(4R-Bzl(4-F)) = O=C(O)[C@H]1C[C@@H](Cc2ccc(F)cc2)CN1; dPro(3S-(4-F-Bn)) = O=C(O)[C@@H]1NCC[C@@H]1Cc1ccc(F)cc1; 1Nal(3S-Me) = C[C@@H](c1cccc2ccccc12)[C@H](N)C(=O)O; Ala(morpholin-4-yl) = N[C@@H](CN1CCOCC1)C(=O)O; Ala(piperazin-1-yl) = N[C@@H](CN1CCNCC1)C(=O)O; Ala(pyrimidin-5-yl) = N[C@@H](Cc1cncnc1)C(=O)O; Phe(4-COOH) = N[C@@H](Cc1ccc(C(=O)O)cc1)C(=O)O; X25 = C[N+](C)(C)CCC[C@H](N[*:1])C(=O)[*:2]; Bip = N[C@@H](Cc1ccc(-c2ccccc2)cc1)C(=O)O; Pro(cis-4-F) = O=C(O)[C@@H]1C[C@H](F)CN1; Ala(4-THP) = N[C@@H](CC1CCOCC1)C(=O)O; X6 = O=C([C@H](Cc1ccncn1)N[*:1])[*:2]; d(αMeD) = C[C@@](N)(CC(=O)O)C(=O)O; 4Pal = N[C@@H](Cc1ccncc1)C(=O)O; aThr = C[C@H](O)[C@H](N)C(=O)O; Dab = NCC[C@H](N)C(=O)O; Aib = CC(C)(N)C(=O)O

molecular target: T1, IL-1β (Homo sapiens, UniProt P01584); assay: IL-6 assay in MRC5 cells: inhibition of IL-1β induced IL-6 secretion (AlphaLISA); type: cell-based; settings: inhibition of IL-1β induced IL-6 secretion in MRC5 cells; compound pre-incubated 1 hour with recombinant human IL-1β; read-out: MRC5 IC50
T1 construct: purchased BioLegend 579404
In short: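 Compound was pre-incubated 1 h at ambient temperature with recombinant human IL-1β at 2λ EC80 before adding human lung fibroblast MRC5 cells (3000/well) in EMEM with 0.025% BSA. After overnight culture at 37 °C, 5% CO2, secreted IL-6 in conditioned medium was measured by AlphaLISA; IC50 from 4-parameter logistic fits.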

T1 sequence (P01584 117-269): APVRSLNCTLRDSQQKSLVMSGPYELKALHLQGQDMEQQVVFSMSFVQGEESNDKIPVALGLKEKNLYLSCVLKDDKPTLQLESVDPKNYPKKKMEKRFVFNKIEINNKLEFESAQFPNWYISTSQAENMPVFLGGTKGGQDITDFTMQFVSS

Row | SMILES | IC50 [pM]
1 | C[C@@H](c1c[nH]c2cccc(F)c12)[C@@H]1NC(=O)[C@@H]2C[C@H](F)CN2C(=O)CNC(=O)[C@H](Cc2ccc(C(=O)O)cc2)NC(=O)[C@H](CC23CC(C2)C3)NC(=O)[C@H](Cc2ccc(-c3ccc(C(=O)O)cc3)cc2)NC(=O)[C@H]2C[C@@H](Cc3ccncc3)CN2C(=O)CNC(=O)[C@H](CCN)NC(=O)[C@H](CCC(N)=O)NC(=O)[C@H](Cc2ccncn2)NC(=O)[C@@](C)(CC(=O)O)NC(=O)[C@H](Cc2c[nH]c3ccccc23)NC(=O)[C@H](CO)NC(=O)C(C)(C)NC1=O [Example 285] (cyclo([Bip(4'-COOH)][Ala(1-bicyclo(1.1.1)pentyl)][Phe(4-COOH)]G[Pro(cis-4-F)][Trp(βS-Me,4-F)][Aib]SW[d(αMeD)][X6]Q[Dab]G[dPro(4R-(4-pyridylmethyl))])) | 13
2 | C[C@@H](c1c[nH]c2cccc(F)c12)[C@@H]1NC(=O)[C@@H]2C[C@H](F)CN2C(=O)CNC(=O)[C@H](Cc2ccc(C(=O)O)cc2)NC(=O)[C@H](Cc2ccncc2)NC(=O)[C@H](Cc2ccc(-c3ccc(C(=O)O)cc3)cc2)NC(=O)[C@H]2[C@@H](Cc3ccc(F)cc3)CCN2C(=O)CNC(=O)[C@H](CCN)NC(=O)[C@H](CCC(N)=O)NC(=O)[C@H](CN2CCOCC2)NC(=O)[C@@](C)(CC(=O)O)NC(=O)[C@H](Cc2c[nH]c3ccccc23)NC(=O)[C@H](CO)NC(=O)C(C)(C)NC1=O [Example 286] (cyclo([Bip(4'-COOH)][4Pal][Phe(4-COOH)]G[Pro(cis-4-F)][Trp(βS-Me,4-F)][Aib]SW[d(αMeD)][Ala(morpholin-4-yl)]Q[Dab]G[dPro(3S-(4-F-Bn))])) | 10
3 | C[C@@H](c1c[nH]c2cccc(F)c12)[C@@H]1NC(=O)[C@@H]2C[C@H](F)CN2C(=O)CNC(=O)[C@H](Cc2ccc(C(=O)O)cc2)NC(=O)[C@H](Cc2ccncc2)NC(=O)[C@H](Cc2ccc(-c3ccc(C(=O)O)cc3)cc2)NC(=O)[C@H]2[C@@H](Cc3ccc(F)cc3)CCN2C(=O)CNC(=O)[C@H](CCN)NC(=O)[C@H](CCC(N)=O)NC(=O)[C@H](CN2CCNCC2)NC(=O)[C@@](C)(CC(=O)O)NC(=O)[C@H](Cc2c[nH]c3ccccc23)NC(=O)[C@H](CO)NC(=O)C(C)(C)NC1=O [Example 287] (cyclo([Bip(4'-COOH)][4Pal][Phe(4-COOH)]G[Pro(cis-4-F)][Trp(βS-Me,4-F)][Aib]SW[d(αMeD)][Ala(piperazin-1-yl)]Q[Dab]G[dPro(3S-(4-F-Bn))])) | 11
4 | C[C@H](O)[C@@H]1NC(=O)[C@@](C)(CC(=O)O)NC(=O)[C@H](Cc2c[nH]c3ccccc23)NC(=O)[C@H](CO)NC(=O)C(C)(C)NC(=O)[C@H]([C@@H](C)c2cccc3ccccc23)NC(=O)[C@@H]2C[C@H](F)CN2C(=O)CNC(=O)[C@H](Cc2ccc(C(=O)O)cc2)NC(=O)[C@H](Cc2ccncc2)NC(=O)[C@H](Cc2ccc(-c3ccccc3)cc2)NC(=O)[C@H]2C[C@@H](Cc3ccncc3)CN2C(=O)CNC(=O)[C@H](CCN)NC(=O)[C@H](CCC(N)=O)NC1=O [Example 288] (cyclo([Bip][4Pal][Phe(4-COOH)]G[Pro(cis-4-F)][1Nal(3S-Me)][Aib]SW[d(αMeD)][aThr]Q[Dab]G[dPro(4R-(4-pyridylmethyl))])) | 19
5 | C[C@H](O)[C@@H]1NC(=O)[C@@](C)(CC(=O)O)NC(=O)[C@H](Cc2c[nH]c3ccccc23)NC(=O)[C@H](CO)NC(=O)C(C)(C)NC(=O)[C@H]([C@@H](C)c2c[nH]c3cccc(Cl)c23)NC(=O)[C@@H]2C[C@H](F)CN2C(=O)CNC(=O)[C@H](Cc2ccc(C(=O)O)cc2)NC(=O)[C@H](Cc2ccncc2)NC(=O)[C@H](Cc2ccc(-c3ccccc3)cc2)NC(=O)[C@H]2C[C@@H](Cc3ccncc3)CN2C(=O)CNC(=O)[C@H](CCN)NC(=O)[C@H](CCC(N)=O)NC1=O [Example 289] (cyclo([Bip][4Pal][Phe(4-COOH)]G[Pro(cis-4-F)][Trp(4-Cl)(βS-Me)][Aib]SW[d(αMeD)][aThr]Q[Dab]G[dPro(4R-(4-pyridylmethyl))])) | 15
6 | C[C@@H](c1cccc2ccccc12)[C@@H]1NC(=O)[C@@H]2C[C@H](F)CN2C(=O)CNC(=O)[C@H](Cc2ccc(C(=O)O)cc2)NC(=O)[C@H](Cc2ccncc2)NC(=O)[C@H](Cc2ccc(-c3ccccc3)cc2)NC(=O)[C@H]2C[C@@H](Cc3ccncc3)CN2C(=O)CNC(=O)[C@H](CCN)NC(=O)[C@H](CCC(N)=O)NC(=O)[C@H](CC2CCOCC2)NC(=O)[C@@](C)(CC(=O)O)NC(=O)[C@H](Cc2c[nH]c3ccccc23)NC(=O)[C@H](CO)NC(=O)C(C)(C)NC1=O [Example 290] (cyclo([Bip][4Pal][Phe(4-COOH)]G[Pro(cis-4-F)][1Nal(3S-Me)][Aib]SW[d(αMeD)][Ala(4-THP)]Q[Dab]G[dPro(4R-(4-pyridylmethyl))])) | 18
7 | C[C@@H](c1cccc2ccccc12)[C@@H]1NC(=O)[C@@H]2C[C@H](F)CN2C(=O)CNC(=O)[C@H](Cc2ccc(C(=O)O)cc2)NC(=O)[C@H](Cc2ccncc2)NC(=O)[C@H](Cc2ccc(-c3ccccc3)cc2)NC(=O)[C@H]2C[C@@H](Cc3ccncc3)CN2C(=O)CNC(=O)[C@H](CCN)NC(=O)[C@H](CCC(N)=O)NC(=O)[C@H](Cc2cncnc2)NC(=O)[C@@](C)(CC(=O)O)NC(=O)[C@H](Cc2c[nH]c3ccccc23)NC(=O)[C@H](CO)NC(=O)C(C)(C)NC1=O [Example 291] (cyclo([Bip][4Pal][Phe(4-COOH)]G[Pro(cis-4-F)][1Nal(3S-Me)][Aib]SW[d(αMeD)][Ala(pyrimidin-5-yl)]Q[Dab]G[dPro(4R-(4-pyridylmethyl))])) | 18
8 | C[C@@H](c1c[nH]c2cccc(Cl)c12)[C@@H]1NC(=O)[C@@H]2C[C@H](F)CN2C(=O)CNC(=O)[C@H](Cc2ccc(C(=O)O)cc2)NC(=O)[C@H](Cc2ccncc2)NC(=O)[C@H](Cc2ccc(-c3ccccc3)cc2)NC(=O)[C@H]2C[C@@H](Cc3ccncc3)CN2C(=O)CNC(=O)[C@H](CCN)NC(=O)[C@H](CCC(N)=O)NC(=O)[C@H](Cc2cncnc2)NC(=O)[C@@](C)(CC(=O)O)NC(=O)[C@H](Cc2c[nH]c3ccccc23)NC(=O)[C@H](CO)NC(=O)C(C)(C)NC1=O [Example 292] (cyclo([Bip][4Pal][Phe(4-COOH)]G[Pro(cis-4-F)][Trp(4-Cl)(βS-Me)][Aib]SW[d(αMeD)][Ala(pyrimidin-5-yl)]Q[Dab]G[dPro(4R-(4-pyridylmethyl))])) | 15
9 | C[C@H](O)[C@@H]1NC(=O)[C@@](C)(CC(=O)O)NC(=O)[C@H](Cc2c[nH]c3ccccc23)NC(=O)[C@H](CO)NC(=O)C(C)(C)NC(=O)[C@H]([C@@H](C)c2c[nH]c3cccc(F)c23)NC(=O)[C@@H]2C[C@H](F)CN2C(=O)CNC(=O)[C@H](Cc2ccc(C(=O)O)cc2)NC(=O)[C@H](Cc2ccncc2)NC(=O)[C@H](Cc2ccc(-c3ccccc3)cc2)NC(=O)[C@H]2C[C@@H](Cc3ccncc3)CN2C(=O)CNC(=O)[C@H](CCN)NC(=O)[C@H](CCC(N)=O)NC1=O [Example 293] (cyclo([Bip][4Pal][Phe(4-COOH)]G[Pro(cis-4-F)][Trp(βS-Me,4-F)][Aib]SW[d(αMeD)][aThr]Q[Dab]G[dPro(4R-(4-pyridylmethyl))])) | 10
10 | C[C@@H](c1c[nH]c2cccc(F)c12)[C@@H]1NC(=O)[C@@H]2C[C@H](F)CN2C(=O)CNC(=O)[C@H](Cc2ccc(C(=O)O)cc2)NC(=O)[C@H](Cc2ccncc2)NC(=O)[C@H](Cc2ccc(-c3ccccc3)cc2)NC(=O)[C@H]2C[C@@H](Cc3ccncc3)CN2C(=O)CNC(=O)[C@H](CCN)NC(=O)[C@H](CCC(N)=O)NC(=O)[C@H](CC2CCOCC2)NC(=O)[C@@](C)(CC(=O)O)NC(=O)[C@H](Cc2c[nH]c3ccccc23)NC(=O)[C@H](CO)NC(=O)C(C)(C)NC1=O [Example 294] (cyclo([Bip][4Pal][Phe(4-COOH)]G[Pro(cis-4-F)][Trp(βS-Me,4-F)][Aib]SW[d(αMeD)][Ala(4-THP)]Q[Dab]G[dPro(4R-(4-pyridylmethyl))])) | 14
11 | C[C@@H](c1c[nH]c2cccc(F)c12)[C@@H]1NC(=O)[C@@H]2C[C@H](F)CN2C(=O)CNC(=O)[C@H](Cc2ccc(C(=O)O)cc2)NC(=O)[C@H](Cc2ccncc2)NC(=O)[C@H](Cc2ccc(-c3ccc(C(=O)N(C)C)cc3)cc2)NC(=O)[C@H]2C[C@@H](Cc3ccncc3)CN2C(=O)CNC(=O)[C@H](CCN)NC(=O)[C@H](CCC(N)=O)NC(=O)[C@H](CC2CCOCC2)NC(=O)[C@@](C)(CC(=O)O)NC(=O)[C@H](Cc2c[nH]c3ccccc23)NC(=O)[C@H](CO)NC(=O)C(C)(C)NC1=O [Example 295] (cyclo([X17][4Pal][Phe(4-COOH)]G[Pro(cis-4-F)][Trp(βS-Me,4-F)][Aib]SW[d(αMeD)][Ala(4-THP)]Q[Dab]G[dPro(4R-(4-pyridylmethyl))])) | 12
12 | C[C@@H](c1c[nH]c2cccc(F)c12)[C@@H]1NC(=O)[C@@H]2C[C@H](F)CN2C(=O)CNC(=O)[C@H](Cc2ccc(C(=O)O)cc2)NC(=O)[C@H](Cc2ccncc2)NC(=O)[C@H](Cc2ccc(-c3ccc(C(N)=O)cc3)cc2)NC(=O)[C@H]2C[C@@H](Cc3ccncc3)CN2C(=O)CNC(=O)[C@H](CCN)NC(=O)[C@H](CCC(N)=O)NC(=O)[C@H](CC2CCOCC2)NC(=O)[C@@](C)(CC(=O)O)NC(=O)[C@H](Cc2c[nH]c3ccccc23)NC(=O)[C@H](CO)NC(=O)C(C)(C)NC1=O [Example 296] (cyclo([Bip(4'-CONH2)][4Pal][Phe(4-COOH)]G[Pro(cis-4-F)][Trp(βS-Me,4-F)][Aib]SW[d(αMeD)][Ala(4-THP)]Q[Dab]G[dPro(4R-(4-pyridylmethyl))])) | 13
13 | C[C@@H](c1c[nH]c2cccc(F)c12)[C@@H]1NC(=O)[C@@H]2C[C@H](F)CN2C(=O)CNC(=O)[C@H](Cc2ccc(C(=O)O)cc2)NC(=O)[C@H](Cc2ccncc2)NC(=O)[C@H](Cc2ccc(-c3ccc(C(=O)O)cc3)cc2)NC(=O)[C@H]2C[C@@H](Cc3ccc(F)cc3)CN2C(=O)CNC(=O)[C@H](CCN)NC(=O)[C@H](CCC(N)=O)NC(=O)[C@H](CCC[N+](C)(C)C)NC(=O)C(C)(C)NC(=O)[C@H](Cc2c[nH]c3ccccc23)NC(=O)[C@H](CO)NC(=O)C(C)(C)NC1=O [Example 297] (cyclo([Bip(4'-COOH)][4Pal][Phe(4-COOH)]G[Pro(cis-4-F)][Trp(βS-Me,4-F)][Aib]SW[Aib][X25]Q[Dab]G[dPro(4R-Bzl(4-F))])) | 22
